From patent publication US10294202B2, “Pyrrolidinones as herbicides” (FMC Corporation, priority 2013, dated 2019)

How the values were obtained:
velvetleaf = test: Test A pre-/postemergence herbicide test; format: in vivo, Abutilon theophrasti
Summary of the method: (§1)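 Visual 0–100 ratings (100 = complete control) made about 10 days after treatment, greenhouse-held plants compared with untreated controls. Treatments: postemergence sprays on one- to two-leaf plants (2–10 cm tall) and preemergence directed soil sprays after planting in loam–sand, chemicals formulated in non-phytotoxic solvent containing surfactant.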

crabgrass, large = test: Test A pre-/postemergence herbicide test; format: in vivo, Digitaria sanguinalis
Summary of the method: as §1

barnyardgrass [1] = test: Test B flooded paddy test; format: in vivo, Echinochloa crus-galli; conditions: Flood, scale of 0 to 100 where 0 is no effect and 100 is complete control
Summary of the method: (§2)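 Paddy-water application at a 3 cm flood, young plants having two leaves. Water level maintained; greenhouse, 13–15 days; visual 0–100 control rating.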

rice = test: Test B flooded paddy test; format: in vivo, Oryza sativa; conditions: Flood, scale of 0 to 100 where 0 is no effect and 100 is complete control
Summary of the method: as §2

corn = test: Test A pre-/postemergence herbicide test; format: in vivo, Zea mays
Summary of the method: as §1

giant foxtail = test: Test A pre-/postemergence herbicide test; format: in vivo, Setaria faberii
Summary of the method: as §1

pigweed = test: Test A pre-/postemergence herbicide test; format: in vivo, Amaranthus retroflexus
Summary of the method: as §1

ducksalad = test: Test B flooded paddy test; format: in vivo, Heteranthera limosa; conditions: Flood, scale of 0 to 100 where 0 is no effect and 100 is complete control
Summary of the method: as §2

morningglory = test: Test A pre-/postemergence herbicide test; format: in vivo, Ipomoea spp.
Summary of the method: as §1

wheat = test: Test A pre-/postemergence herbicide test; format: in vivo, Triticum aestivum
Summary of the method: as §1

barnyardgrass [2] = test: Test A pre-/postemergence herbicide test; format: in vivo, Echinochloa crus-galli
Summary of the method: as §1

sedge, umbrella = test: Test B flooded paddy test; format: in vivo, Cyperus difformis; conditions: Flood, scale of 0 to 100 where 0 is no effect and 100 is complete control
Summary of the method: as §2

[3] = Postemergence, 125 g ai/ha, 0 to 100 scale, 0 no effect, 100 complete control
[4] = Postemergence, 500 g ai/ha, 0 to 100 scale (0 no effect, 100 complete control)
[5] = Preemergence, 125 g ai/ha, visual rating on 0 to 100 scale (0 no effect, 100 complete control)
[6] = preemergence, 500 g ai/ha, 0 to 100 scale
[7] = preemergence, 500 g ai/ha, 0 to 100 scale (0 no effect, 100 complete control)
[8] = Postemergence, 1000 g ai/ha, 0 to 100 scale (0 no effect, 100 complete control)
[9] = Preemergence, 1000 g ai/ha, visual rating on 0 to 100 scale (0 no effect, 100 complete control), approx. 10 days
[10] = 125 g ai/ha, visual rating, 0 to 100 scale, 0 no effect, 100 complete control, approximately 10 days, preemergence
[11] = Postemergence, 125 g ai/ha, 0 to 100 scale, 0 is no effect, 100 is complete control
[12] = preemergence, 500 g ai/ha, 0 to 100 scale, 0 is no effect and 100 is complete control

## N#Cc1cccc(C2CNC(=O)C2C(=O)Nc2cccc(F)c2F)c1 (racemic) [Compound 73]
velvetleaf; [3]
  Plant response rating, Velvetleaf: 0
velvetleaf; [4]
  Plant response rating, Velvetleaf: 30
velvetleaf; [5]
  Velvetleaf plant response rating: 0
velvetleaf; [6]
  Plant response rating, Velvetleaf: 0
crabgrass, large; [3]
  Plant response rating, Crabgrass, Large: 50
crabgrass, large; [4]
  Plant response rating, Crabgrass, Large: 80
crabgrass, large; [5]
  Crabgrass, Large plant response rating: 80
crabgrass, large; [6]
  Plant response rating, Crabgrass, Large: 90
Barnyardgrass [1]; 250 g ai/ha
  Plant response rating, Barnyardgrass: 0
rice; 250 g ai/ha
  Plant response rating, Rice: 0
corn; [3]
  Plant response rating, Corn: 0
corn; [4]
  Plant response rating, Corn: 0
corn; [5]
  Corn plant response rating: 0
corn; [6]
  Plant response rating, Corn: 0
Giant foxtail; [3]
  Plant response rating, Foxtail, Giant: 30
Giant foxtail; [4]
  Plant response rating, Foxtail, Giant: 80
Giant foxtail; [5]
  Foxtail, Giant plant response rating: 80
Giant foxtail; [6]
  Plant response rating, Foxtail, Giant: 90
pigweed; [4]
  Plant response rating, Pigweed: 0
pigweed; [5]
  Pigweed plant response rating: 0
pigweed; [6]
  Plant response rating, Pigweed: 0
ducksalad; 250 g ai/ha
  Plant response rating, Ducksalad: 60
morningglory; [3]
  Plant response rating, Morningglory: 0
morningglory; [4]
  Plant response rating, Morningglory: 20
morningglory; [5]
  Morningglory plant response rating: 0
morningglory; [6]
  Plant response rating, Morningglory: 0
wheat; [3]
  Plant response rating, Wheat: 0
wheat; [4]
  Plant response rating, Wheat: 0
wheat; [5]
  Wheat plant response rating: 0
wheat; [6]
  Plant response rating, Wheat: 0
Barnyardgrass [2]; [3]
  Plant response rating, Barnyardgrass: 70
Barnyardgrass [2]; [4]
  Plant response rating, Barnyardgrass: 80
Barnyardgrass [2]; [5]
  Barnyardgrass plant response rating: 50
Barnyardgrass [2]; [7]
  Plant response rating, Barnyardgrass: 80
sedge, umbrella; 250 g ai/ha
  Plant response rating, Sedge, Umbrella: 0

## CS(=O)(=O)c1ccccc1NC(=O)C1C(=O)NCC1c1ccc(Cl)c(Cl)c1 (stereo not shown) [Compound 43]
velvetleaf; [8]
  Plant response rating, Velvetleaf: 30
velvetleaf; [9]
  Plant response rating, Velvetleaf: 0
crabgrass, large; [8]
  Plant response rating, Crabgrass, Large: 20
crabgrass, large; [9]
  Plant response rating, Crabgrass, Large: 90
Barnyardgrass [1]; 250 g ai/ha
  Plant response rating, Barnyardgrass: 0
rice; 250 g ai/ha
  Plant response rating, Rice: 0
corn; [8]
  Plant response rating, Corn: 0
corn; [9]
  Plant response rating, Corn: 0
Giant foxtail; [8]
  Plant response rating, Foxtail, Giant: 50
Giant foxtail; [9]
  Plant response rating, Foxtail, Giant: 80
pigweed; [8]
  Plant response rating, Pigweed: 20
pigweed; [9]
  Plant response rating, Pigweed: 0
ducksalad; 250 g ai/ha
  Plant response rating, Ducksalad: 0
morningglory; [8]
  Plant response rating, Morningglory: 10
morningglory; [9]
  Plant response rating, Morningglory: 0
wheat; [8]
  Plant response rating, Wheat: 0
wheat; [9]
  Plant response rating, Wheat: 0
Barnyardgrass [2]; [8]
  Plant response rating, Barnyardgrass: 40
Barnyardgrass [2]; [9]
  Plant response rating, Barnyardgrass: 20
sedge, umbrella; 250 g ai/ha
  Plant response rating, Sedge, Umbrella: 0

## CC(C)(C)OC(=O)Nc1cccc(C2CNC(=O)C2C(=O)Nc2cccc(F)c2F)c1 (stereo not shown) [Compound 70]
velvetleaf; [3]
  Plant response rating, Velvetleaf: 0
velvetleaf; [4]
  Plant response rating, Velvetleaf: 20
velvetleaf; [5]
  Velvetleaf plant response rating: 0
velvetleaf; [6]
  Plant response rating, Velvetleaf: 0
crabgrass, large; [3]
  Plant response rating, Crabgrass, Large: 20
crabgrass, large; [4]
  Plant response rating, Crabgrass, Large: 70
crabgrass, large; [5]
  Crabgrass, Large plant response rating: 80
crabgrass, large; [6]
  Plant response rating, Crabgrass, Large: 90
Barnyardgrass [1]; 250 g ai/ha
  Plant response rating, Barnyardgrass: 40
rice; 250 g ai/ha
  Plant response rating, Rice: 35
corn; [3]
  Plant response rating, Corn: 0
corn; [4]
  Plant response rating, Corn: 0
corn; [5]
  Corn plant response rating: 0
corn; [6]
  Plant response rating, Corn: 0
Giant foxtail; [3]
  Plant response rating, Foxtail, Giant: 20
Giant foxtail; [4]
  Plant response rating, Foxtail, Giant: 80
Giant foxtail; [5]
  Foxtail, Giant plant response rating: 70
Giant foxtail; [6]
  Plant response rating, Foxtail, Giant: 90
pigweed; [3]
  Plant response rating, Pigweed: 0
pigweed; [4]
  Plant response rating, Pigweed: 20
pigweed; [5]
  Pigweed plant response rating: 0
pigweed; [6]
  Plant response rating, Pigweed: 0
ducksalad; 250 g ai/ha
  Plant response rating, Ducksalad: 85
morningglory; [3]
  Plant response rating, Morningglory: 0
morningglory; [4]
  Plant response rating, Morningglory: 0
morningglory; [5]
  Morningglory plant response rating: 0
morningglory; [6]
  Plant response rating, Morningglory: 0
wheat; [3]
  Plant response rating, Wheat: 0
wheat; [4]
  Plant response rating, Wheat: 40
wheat; [5]
  Wheat plant response rating: 0
wheat; [6]
  Plant response rating, Wheat: 20
Barnyardgrass [2]; [3]
  Plant response rating, Barnyardgrass: 20
Barnyardgrass [2]; [4]
  Plant response rating, Barnyardgrass: 60
Barnyardgrass [2]; [5]
  Barnyardgrass plant response rating: 20
Barnyardgrass [2]; [7]
  Plant response rating, Barnyardgrass: 90
sedge, umbrella; 250 g ai/ha
  Plant response rating, Sedge, Umbrella: 70

## COc1ccc(C2CNC(=O)C2C(=O)Nc2ccccc2F)cc1F (racemic) [Compound 197]
velvetleaf; [10]
  Plant response rating, Velvetleaf: 0
velvetleaf; [11]
  Plant response rating, Velvetleaf: 0
velvetleaf; Postemergence, 500 g ai/ha
  Velvetleaf plant response rating (0 to 100 scale, 0 is no effect, 100 is complete control): 0
velvetleaf; [12]
  Plant response rating, Velvetleaf: 0
crabgrass, large; [10]
  Plant response rating, Crabgrass, Large: 80
crabgrass, large; [11]
  Plant response rating, Crabgrass, Large: 50
crabgrass, large; Postemergence, 500 g ai/ha
  Crabgrass, Large plant response rating (0 to 100 scale, 0 is no effect, 100 is complete control): 70
crabgrass, large; [12]
  Plant response rating, Crabgrass, Large: 100
Barnyardgrass [1]; 250 g ai/ha
  Plant response rating, Barnyardgrass: 0
Barnyardgrass [1]; 1000 g ai/ha
  Plant response rating, Barnyardgrass: 30
rice; 250 g ai/ha
  Plant response rating, Rice: 0
rice; 1000 g ai/ha
  Plant response rating, Rice: 10
corn; [10]
  Plant response rating, Corn: 0
corn; [11]
  Plant response rating, Corn: 0
corn; Postemergence, 500 g ai/ha
  Corn plant response rating (0 to 100 scale, 0 is no effect, 100 is complete control): 0
corn; [12]
  Plant response rating, Corn: 0
Giant foxtail; [10]
  Plant response rating, Foxtail, Giant: 30
Giant foxtail; [11]
  Plant response rating, Foxtail, Giant: 0
Giant foxtail; Postemergence, 500 g ai/ha
  Foxtail, Giant plant response rating (0 to 100 scale, 0 is no effect, 100 is complete control): 40
Giant foxtail; [12]
  Plant response rating, Foxtail, Giant: 80
pigweed; [10]
  Plant response rating, Pigweed: 0
pigweed; [11]
  Plant response rating, Pigweed: 0
pigweed; Postemergence, 500 g ai/ha
  Pigweed plant response rating (0 to 100 scale, 0 is no effect, 100 is complete control): 0
pigweed; [12]
  Plant response rating, Pigweed: 0
ducksalad; 250 g ai/ha
  Plant response rating, Ducksalad: 0
ducksalad; 1000 g ai/ha
  Plant response rating, Ducksalad: 75
morningglory; [10]
  Plant response rating, Morningglory: 0
morningglory; [11]
  Plant response rating, Morningglory: 0
morningglory; Postemergence, 500 g ai/ha
  Morningglory plant response rating (0 to 100 scale, 0 is no effect, 100 is complete control): 10
morningglory; [12]
  Plant response rating, Morningglory: 0
wheat; [10]
  Plant response rating, Wheat: 0
wheat; [11]
  Plant response rating, Wheat: 0
wheat; Postemergence, 500 g ai/ha
  Wheat plant response rating (0 to 100 scale, 0 is no effect, 100 is complete control): 0
wheat; [12]
  Plant response rating, Wheat: 0
Barnyardgrass [2]; [10]
  Plant response rating, Barnyardgrass: 0
Barnyardgrass [2]; [11]
  Plant response rating, Barnyardgrass: 30
Barnyardgrass [2]; Postemergence, 500 g ai/ha
  Barnyardgrass plant response rating (0 to 100 scale, 0 is no effect, 100 is complete control): 70
Barnyardgrass [2]; [12]
  Plant response rating, Barnyardgrass: 70
sedge, umbrella; 250 g ai/ha
  Plant response rating, Sedge, Umbrella: 0
sedge, umbrella; 1000 g ai/ha
  Plant response rating, Sedge, Umbrella: 0

## O=C1NCC(c2ccc(F)c(F)c2)C1C(=O)Nc1ccccc1 (racemic) [Compound 30]
velvetleaf; [8]
  Plant response rating, Velvetleaf: 0
velvetleaf; [9]
  Plant response rating, Velvetleaf: 0
crabgrass, large; [8]
  Plant response rating, Crabgrass, Large: 80
crabgrass, large; [9]
  Plant response rating, Crabgrass, Large: 90
Barnyardgrass [1]; 250 g ai/ha
  Plant response rating, Barnyardgrass: 0
rice; 250 g ai/ha
  Plant response rating, Rice: 0
corn; [8]
  Plant response rating, Corn: 0
corn; [9]
  Plant response rating, Corn: 0
Giant foxtail; [8]
  Plant response rating, Foxtail, Giant: 80
Giant foxtail; [9]
  Plant response rating, Foxtail, Giant: 90
pigweed; [8]
  Plant response rating, Pigweed: 0
pigweed; [9]
  Plant response rating, Pigweed: 0
ducksalad; 250 g ai/ha
  Plant response rating, Ducksalad: 0
morningglory; [8]
  Plant response rating, Morningglory: 0
morningglory; [9]
  Plant response rating, Morningglory: 0
wheat; [8]
  Plant response rating, Wheat: 0
wheat; [9]
  Plant response rating, Wheat: 0
Barnyardgrass [2]; [8]
  Plant response rating, Barnyardgrass: 90
Barnyardgrass [2]; [9]
  Plant response rating, Barnyardgrass: 90
sedge, umbrella; 250 g ai/ha
  Plant response rating, Sedge, Umbrella: 0
